Experimental findings from paper PMC3634512, “Inhibition of Human Transthyretin Aggregation by Non-Steroidal Anti-Inflammatory Compounds: A Structural and Thermodynamic Analysis” (International Journal of Molecular Sciences, 2013) are described below.

In one experiment the target is T1, Transthyretin (WT-TTR) (Homo sapiens, UniProt P02766).
T1 construct: WT-TTR homotetramer
Nature of the experiment: crystal structure (soaked crystals); ANS displacement (apparent Kd). Format: binding.

Experiment [1] addresses T2, Transthyretin (L55P variant) (Homo sapiens, UniProt P02766, L75P).
T2 construct: gene TTR; L55P TTR homotetramer
Nature of the experiment: ANS displacement from the hormone binding site (apparent Kd).

pKd: −log10 of the molar value.

With `Cc1ccc(Nc2c(F)cccc2Cl)c(CC(=O)O)c1` [LUM, lumiracoxib], the pKd on Transthyretin (WT-TTR) is 5.85; in experiment [1] it was 5.77.
